This note sets out measurements from patent publication US12403144B2, “HECT E3 ligase inhibitors and uses thereof” (IFOM FONDAZIONE ISTITUTO FIRC DI ONCOLOGIA MOLECOLARE, priority 2019, dated 2025).

Where a name gives a salt, the structure may show the parent alone.

The target in the assay is T1, untagged HECT of NEDD4 wild-type (WT) (E3 ligase) (Homo sapiens, UniProt P46934).
T1 construct: untagged HECT of NEDD4 wild-type (WT) (E3 ligase); made in house
T1 sequence (P46934 519-900 isoform P46934-4 limits assumed): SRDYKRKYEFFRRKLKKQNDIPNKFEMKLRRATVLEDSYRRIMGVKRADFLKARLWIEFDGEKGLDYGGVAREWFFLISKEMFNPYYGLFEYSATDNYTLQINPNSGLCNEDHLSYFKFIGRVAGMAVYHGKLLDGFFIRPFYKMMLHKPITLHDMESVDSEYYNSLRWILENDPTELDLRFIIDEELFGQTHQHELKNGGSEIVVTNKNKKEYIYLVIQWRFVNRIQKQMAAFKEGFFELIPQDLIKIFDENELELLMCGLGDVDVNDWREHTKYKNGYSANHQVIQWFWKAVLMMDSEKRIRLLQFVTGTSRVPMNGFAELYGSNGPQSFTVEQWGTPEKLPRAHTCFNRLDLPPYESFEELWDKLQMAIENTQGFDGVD
Briefly: In vitro ubiquitination assay TR-FRET based (self-ubiquitination of NEDD4). It is filed as biochemical. The conditions noted are these: at 11 μM; pre-incubated for 1 hour; AUC of 120 minutes kinetic; read-out: percentages of inhibition (NEDD4). In short, it runs like this: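 Mix of E1, His-UBE2D3 and untagged NEDD4 HECT (final 30, 350, 50 nM) with Eu-cryptate/Cy5/unlabelled ubiquitin in pH 7.6 Tris buffer, compounds (100–0.005 μM dilution series) pre-incubated 1 h, then started with ATP. 665/620 nm TR-FRET followed 120 min; % inhibition from AUC versus DMSO, no-ATP background.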
In general, inhibition refers to the percentage by which the read-out fell short of the control. For the compound `CCOC(=O)/C=C/CNCCCN1c2cc(Cl)ccc2CCc2cn(C)nc21` [Compound 31], the inhibition at 11 µM was below 30%. In the case of `CCOC(=O)/C=C/CNCCC(=O)N1c2ccccc2CCc2ccc(Cl)cc21` [Compound 33, Ethyl (E)-4-{[3-(3-chloro-10,11-dihydro-5H-dibenzo[b,f]azepin-5-yl)-3-oxo-propyl]amino}but-2-enoate maleate], the inhibition at 11 µM is below 30%.

For `CON(C)C(=O)/C=C/CN(C)CCCN1c2ccccc2CCc2ccc(Cl)cc21` [Compound 6, (E)-4-[3-(3-Chloro-10,11-dihydro-5H-dibenzo[b,f]azepin-5-yl)propyl-methyl-amino]-N-methoxy-N-methyl-but-2-enamide], the inhibition at 11 µM was above 50%. For the compound `CN(C/C=C/C(=O)c1ccccc1)CCCN1c2ccccc2CCc2ccc(Cl)cc21` [Compound 8, (E)-4-[3-(3-chloro-10,11-dihydro-5H-dibenzo[b,f]azepin-5-yl)propyl-methyl-amino]-1-phenyl-but-2-en-1-one], the inhibition at 11 µM is above 50%. With `C#CCOC(=O)/C=C/CNCCCCN1c2ccccc2CCc2ccc(Cl)cc21` [Compound 91, Prop-2-yn-1-yl (E)-4-[4-(3-chloro-10,11-dihydro-5H-dibenzo[b,f]azepin-5-yl)butylamino]but-2-enoate maleate] the figure was above 50%. As for `CCOC(=O)/C=C/CNCCCN1c2ccccc2C(=O)N(C)c2ccc(Cl)cc21` [Compound 28, Ethyl (E)-4-{[3-(7-chloro-10-methyl-11-oxo-10,11-dihydro-5H-dibenzo[b,e][1,4]diazepin-5-yl)propyl]amino}but-2-enoate maleate], the inhibition at 11 µM was above 50%. With `CCOC(=O)/C=C/CNCCCN1c2cc(Cl)ccc2NC(=O)c2ccccc21` [Compound 26, Ethyl (E)-4-{[3-(7-chloro-11-oxo-10,11-dihydro-5H-dibenzo[b,e][1,4]diazepin-5-yl)propyl]amino}but-2-enoate maleate] the figure was above 50%; with `CC(=O)/C=C/CN(C)CCCCN1c2cc(Cl)ccc2COc2ccccc21` [Compound 70, (E)-5-[4-(3-Chlorodibenzo[b,e][1,4]oxazepin-5(11H)-yl)butyl-methyl-amino]pent-3-en-2-one maleate], above 50%; with `CCOC(=O)/C=C/CNCCCCN1c2ccccc2C(=O)N(CCc2ccccc2)c2ccc(Cl)cc21` [Compound 44, Ethyl (E)-4-{[4-(7-chloro-10-(2-phenylethyl)-11-oxo-10,11-dihydro-5H-dibenzo[b,e][1,4]diazepin-5-yl)butyl]amino}but-2-enoate maleate], above 50%.

For the compound `CCOC(=O)/C=C/CNCCCCN1c2cc(Cl)ccc2COc2ccccc21` [Compound 36, Ethyl (E)-4-{4-[3-chlorodibenzo[b,e][1,4]oxazepin-5(11H)-yl]butylamino}but-2-enoate maleate], the inhibition at 11 µM is above 50%. With `CCOC(=O)/C=C/CNCCCCN1c2ccccc2C(=O)N(CCO)c2ccc(Cl)cc21` [Compound 50, Ethyl (E)-4-({4-[7-chloro-10-(2-hydroxyethyl)-11-oxo-10,11-dihydro-5H-dibenzo[b,e][1,4]diazepin-5-yl]butyl}amino)but-2-enoate maleate] the figure was above 50%; with `CCOC(=O)/C=C/CNCCCC(=O)N1c2ccccc2CCc2ccc(Cl)cc21` [Compound 38, Ethyl (E)-4-{[4-(3-chloro-10,11-dihydro-5H-dibenzo[b,f]azepin-5-yl)-4-oxo-butyl]amino}but-2-enoate maleate], above 50%; with `C#CCOCCOc1ccc2c(c1)CCc1ccc(Cl)cc1N2CCCCN(C)C/C=C/C(=O)OC` [Compound 89, Methyl (E)-4-{4-[7-chloro-2-(2-prop-2-ynoxyethoxy)-10,11-dihydro-5H-dibenzo[b,f]azepin-5-yl]-butyl-methyl-amino}-but-2-enoate maleate], above 50%. With `CCOC(=O)/C=C/CNCCCCN1c2ccc(O)cc2CCc2ccc(Cl)cc21` [Compound 39, Ethyl (E)-4-[4-(7-Chloro-2-hydroxy-10,11-dihydro-dibenzo[b,f]azepin-5-yl)-butylamino]-but-2-enoate maleate] the figure was above 50%. As for `CCOC(=O)/C=C/CNCCCCN1c2cc(Cl)ccc2C(=O)N(CCCO)c2ccccc21` [Compound 48, Ethyl (E)-4-({4-[3-chloro-10-(3-hydroxypropyl)-11-oxo-10,11-dihydro-5H-dibenzo[b,e][1,4]diazepin-5-yl]butyl}amino)but-2-enoate maleate], the inhibition at 11 µM was above 50%. `CCOC(=O)/C=C/CNCCCN1c2cc(Cl)ccc2CCc2cncnc21` [Compound 32, Ethyl (E)-4-{[3-(9-chloro-5,6-dihydro-11H-pyrimido[4,5-b][1]-benzazepin-11-yl)propyl]amino}but-2-enoate fumarate]: the inhibition at 11 µM is above 50%. Consider `CN(C/C=C/C#N)CCCCN1c2ccccc2CCc2ccc(Cl)cc21` [Compound 73, (E)-4-[4-(3-Chloro-10,11-dihydro-5H-dibenzo[b,f]azepin-5-yl)butyl-methyl-amino]but-2-enenitrile maleate], for which the inhibition at 11 µM is above 50%.

For the compound `O=C(O)/C=C/CNCCCCN1c2ccccc2CCc2ccc(Cl)cc21` [Compound 17, (E)-4-[4-(3-chloro-10,11-dihydro-5H-dibenzo[b,f]azepin-5-yl)butylamino]but-2-enoic acid 2,2,2-trifluoroacetate], the inhibition at 11 µM is below 30%. With `O=C(/C=C/CNCCCCN1c2ccccc2CCc2ccc(Cl)cc21)NOC1CCNCC1` [Compound 83, (E)-4-[4-(3-Chloro-10,11-dihydro-5H-dibenzo[b,f]azepin-5-yl)butylamino]-N-(4-piperidyloxy)-but-2-enamide dimaleate] the figure was above 50%. As for `CC(=O)/C=C/CN(C)CCCCN1c2cc(Cl)ccc2C(=O)N(Cc2ccccc2)c2ccccc21` [Compound 60, 10-Benzyl-3-chloro-5-(4-{methyl[(E)-4-oxo-pent-2-en-1-yl]amino}butyl)-5,10-dihydro-11H-dibenzo[b,e][1,4]diazepin-11-one maleate], the inhibition at 11 µM was above 50%. With `CC(=O)/C=C/CN(C)CCCCN1c2cc(Cl)ccc2C(=O)N(C)c2ccccc21` [Compound 57, 3-Chloro-10-methyl-5-(4-{methyl[(E)-4-oxopent-2-en-1-yl]amino}butyl)-5,10-dihydro-11H-dibenzo[b,e][1,4]diazepin-11-one maleate] the figure was above 50%; with `CN(C/C=C/C#N)CCCCN1c2ccc(OCCOCc3cn(CCOCCOCCOCCNC(=O)CCCC[C@@H]4SC[C@@H]5NC(=O)N[C@@H]54)nn3)cc2CCc2ccc(Cl)cc21` [Compound 99, 5-((3aS,4S,6aR)-2-Oxo-hexahydro-thieno[3,4-d]imidazol-4-yl)-(2-{2-[2-(2-{4-[2-(7-chloro-5-{4-[((E)-3-cyano-allyl)-methyl-amino]-butyl}-10,11-dihydro-5H-dibenzo[b,f]azepin-2-yloxy)-ethoxymethyl]-[1,2,3]triazol-1-yl}-ethoxy)-ethoxy]-ethoxy}-ethyl)pentanamide], above 50%. Take `CCOC(=O)/C=C/CNCCCN1c2ccccc2C(=O)N(CCO)c2ccc(Cl)cc21` [Compound 55, Ethyl (E)-4-({3-[7-chloro-10-(2-hydroxyethyl)-11-oxo-10,11-dihydro-5H-dibenzo[b,e][1,4]diazepin-5-yl]propyl}amino)but-2-enoate maleate]: the inhibition at 11 µM is below 30%.

As to `CNC(=O)/C=C/CNCCCN1c2ccccc2CCc2ccc(Cl)cc21` [Compound 19, (E)-4-{[3-(3-chloro-10,11-dihydro-5H-dibenzo[b,f]azepin-5-yl)propyl]amino}-N-methyl-but-2-enamide hydrochloride], the inhibition at 11 µM was below 30%. `CCOC(=O)/C=C/CNCCCCN1c2ccc(COC)cc2CCc2ccc(Cl)cc21` [Compound 75, Ethyl (E)-4-[4-(7-chloro-2-methoxymethyl-10,11-dihydro-dibenzo[b,f]azepin-5-yl)-butylamino]-but-2-enoate maleate]: the inhibition at 11 µM was above 50%. For `CN(C/C=C/C(=O)OCCOCCOCCOCCOCCOCCOCCOCCNC(=O)CCCC[C@@H]1SC[C@@H]2NC(=O)N[C@@H]21)CCCCN1c2ccccc2CCc2ccc(Cl)cc21` [Compound 96, 2-(2-{2-[2-(2-{2-[2-(2-[5-((3aS,4S,6aR)-2-Oxo-hexahydro-thieno[3,4-d]imidazol-4-yl)-pentanoylamino]-ethoxy)-ethoxy]-ethoxy}-ethoxy)-ethoxy]-ethoxy}-ethoxy)-ethyl (E)-4-{[4-(3-chloro-10,11-dihydro-dibenzo[b,f]azepin-5-yl)-butyl]-methyl-amino} but-2-enoate], the inhibition at 11 µM is above 50%.

For `CCOC(=O)/C=C/CNCCCN1c2ccccc2CCc2ccccc21` [Compound 11, Ethyl (E)-4-[3-(10,11-dihydro-5H-dibenzo[b,f]azepin-5-yl)propylamino]but-2-enoate fumarate], the inhibition at 11 µM lay in the range of 30 to 50%. On to `CCOC(=O)/C=C/CNCCCCN1c2cc(Cl)ccc2C(=O)N(CCOCCOC)c2ccccc21` [Compound 86, Ethyl (E)-4-{[4-(3-chloro-10-[2-(2-methoxyethoxy)ethyl]-11-oxo-10,11-dihydro-5H-dibenzo[b,e][1,4]diazepin-5-yl)butyl]amino}but-2-enoate maleate], for which the inhibition at 11 µM is above 50%.
